For one assay, the target named is T1, IGS4B (Homo sapiens, UniProt Q9GZQ4, A395T/F315L/M388V/P383L/S298T).
T1 construct: expressed in transfected cells; host or cells: CHOGα16 (CHO cells stably expressing Gα16, Molecular Devices), transfected with IGS4-pcDNA3.1
Nature of the assay: FLIPR intracellular calcium mobilisation in CHOGα16-IGS4 cells (IGS4B). Format: cell-based. As to conditions: for maximal activation of IGS4B: comparison among the three neuromedin U isoforms; for IGS4-mediated calcium mobilisation in the FLIPR assay: range 10^−6–10^−12 M, IGS4B. The procedure: (§1) A. Method and Materials for IGS-4 Transfected CHOGα16IGS4 cells.
(§2) The following materials were used in the experiments: Vector containing IGS4-DNA sequence (IGS4-pcDNA3.1); SuperFect Transfection Reagent (Qiagen): Nut-Mix F12 (Gibco) with 10% FCS, 0.028 mg/ml Gentamycin (Gibco); 0.22 mg/ml Hygromycin (Gibco).
(§3) Materials used for clone selection: Nut-Mix F12 with 10% FCS; 0.028 mg/ml Gentamycin; 0.22 mg/ml Hygromycin and 0.55 mg/ml Geneticin (Gibco).
The following method was applied: Transfection with SuperFect Transfection Reagent was carried out as described by the manufacturer (Qiagen). Cells were plated in 24-well plates to 50% confluence. Per well […] plasmid-DNA with 1 μl SuperFect Transfection Reagent was added. After 24 hours the medium was changed and transfected cell clones were selected by Geneticin-containing selection-medium. IGS4 expressing cell clones were characterized by RT-PCR and Northern Blot.
B. Method and Materials for FLIPR-Assay.
The method was performed as follows: Cells were seeded 24 hours or 48 hours prior to the experiment into black wall microplates. The cell density was […] cells/well for 48 hour incubation and […] cells/well for 24 hour incubation. All steps were done under sterile conditions.
In order to observe changes in intracellular calcium levels, cells must be ‘loaded’ with a calcium-sensitive fluorescent dye. This dye, called FLUO-4 (Molecular Probes) is excited at 488 nm, and emits light in the 500–560 nm range, only if a complex with calcium is formed. The dye was used at 4 μM final concentration. Pluronic acid was added to increase dye solubility and dye uptake into the cells. Probenicid, an anion exchange protein inhibitor, was added to the dye medium to increase dye retention in the cells.
The method was worked as follows: The 2 mM stock of dye was mixed with an equal volume of 20% (w/v) pluronic acid immediately before adding to the loading-Buffer. The growth-medium was aspirated out of the well without disturbing the confluent cell layer. 100 μl loading medium was dispensed into each well using a Multidrop (Labsystems). Cell were incubated in a 5% CO2, 37° C. incubator for 30 minutes. In order to calculate the, background fluorescence, some wells were not dye loaded. The background fluorescence in these wells results from autofluorescence of the cells. After dye loading, cell were washed three times with Wash-Buffer (automated Denley cell washer) to reduce the basal fluorescence to 20.000–25.000 counts above background. 100 l buffer was added and cell were incubated at 37° C. till start of the experiment. […]
The resulting CHOGα16-IGS4 cells were functionally screened on a Fluorometric Imaging Plate Reader (FLIPR) to measure mobilisation of intracellular calcium in response to putative peptide ligands. […]

The target of a further assay is T2, IGS4A (Homo sapiens, UniProt Q9GZQ4, A395T).
T2 construct: expressed in transfected cells; host or cells: CHOGα16 (CHO cells stably expressing Gα16, Molecular Devices), transfected with IGS4-pcDNA3.1
Nature of the assay: FLIPR intracellular calcium mobilisation in CHOGα16-IGS4 cells (IGS4A). Type of assay: cell-based. As to conditions: range 10^−6–10^−12 M. On the procedure:
as §1, §2, §3
The following method was applied: Transfection with SuperFect Transfection Reagent was carried out as described by the manufacturer (Qiagen). Cells were plated in 24-well plates to 50% confluence. Per well […] plasmid-DNA with 1 μl SuperFect Transfection Reagent was added. After 24 hours the medium was changed and transfected cell clones were selected by Geneticin-containing selection-medium. […]
The method was worked as follows: The 2 mM stock of dye was mixed with an equal volume of 20% (w/v) pluronic acid immediately before adding to the loading-Buffer. […] In order to calculate the, background fluorescence, some wells were not dye loaded. The background fluorescence in these wells results from autofluorescence of the cells. After dye loading, cell were washed three times with Wash-Buffer (automated Denley cell washer) to reduce the basal fluorescence to 20.000–25.000 counts above background. […]

In the next assay the test system is IGS4. Nature of the assay: Basal intracellular cAMP in CHOGα16-IGS4 cells. Format: cell-based, human. Particulars: 1 and 10 μM; data not shown.

T1 sequence (Q9GZQ4 whole entry S298T/F315L/P383L/M388V/A395T): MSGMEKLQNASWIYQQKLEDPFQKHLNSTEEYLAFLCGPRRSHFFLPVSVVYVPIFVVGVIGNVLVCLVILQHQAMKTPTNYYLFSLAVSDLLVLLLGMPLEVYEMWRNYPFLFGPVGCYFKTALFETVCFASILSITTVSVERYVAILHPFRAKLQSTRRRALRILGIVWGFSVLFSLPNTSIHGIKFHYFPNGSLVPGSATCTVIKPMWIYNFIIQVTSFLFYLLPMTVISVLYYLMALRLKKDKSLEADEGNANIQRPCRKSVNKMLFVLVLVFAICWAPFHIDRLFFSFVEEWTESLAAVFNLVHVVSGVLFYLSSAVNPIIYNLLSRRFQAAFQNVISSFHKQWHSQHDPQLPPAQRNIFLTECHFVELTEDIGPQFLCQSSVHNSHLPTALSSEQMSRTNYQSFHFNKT
T2 sequence (Q9GZQ4 whole entry A395T): as the sequence (Q9GZQ4 whole entry S298T/F315L/P383L/M388V/A395T) above, with T298S, L315F, L383P, V388M counted along it

On to neuromedin U-8, for which, at IGS4B, the “maximal activation of IGS4B” value was “same maximal activation” and the “IGS4-mediated calcium mobilisation in the FLIPR assay” value (“IGS4-mediated calcium mobilisation” for short) is given as “induced specific IGS4-mediated calcium mobilisation”. The “IGS4-mediated calcium mobilisation” value on IGS4A is on record as “induced specific IGS4-mediated calcium mobilisation”. Besides, the “basal levels of intracellular cAMP” value in the assay on IGS4 is “not modulated”.
For the substance neuromedin U-25, on IGS4B, the “maximal activation of IGS4B” value was “same maximal activation” and the “IGS4-mediated calcium mobilisation” value is “induced specific IGS4-mediated calcium mobilisation”. For the same substance, the “IGS4-mediated calcium mobilisation” value at IGS4A is given as “induced specific IGS4-mediated calcium mobilisation”.

Values taken from patent US7151165B2, “Antibodies immunospecific for a novel human G-protein coupled receptor family” (priority 1999, dated 2006).
